Experimental data as given in EPA's ToxRefDB 2.

Key:
dog [1] = details: Chronic toxicity, beagle, Oral, Gavage/Intubation, dose end: 6 month, group: systemic
dog [2] = details: Chronic toxicity, beagle, Oral, Gavage/Intubation, dose end: 12 month, group: systemic
dog [3] = details: Sub-acute repeat dose toxicity, beagle, Oral, Gavage/Intubation, dose end: 4 week, group: systemic
rat [4] = details: Chronic toxicity; sprague dawley; Oral; Gavage/Intubation; dose end: 6 month; group: systemic; systemic / clinical chemistry / estradiol / estradiol + systemic / clinical chemistry / prolactin / prolactin + systemic / clinical …
mouse = details: Subchronic oral toxicity in rodents, cd1, Gavage/Intubation, dose end: 13 weeks, group: systemic, systemic / in life observation / body weight / body weight + systemic / in life observation / body weight / body weight gain + systemic / in…
rabbit = details: Prenatal developmental toxicity study, other, Oral, Gavage/Intubation, dose end: 18 GD
rat [5] = details: Fertility (Segment I), sprague dawley, Oral, Gavage/Intubation, dose end: 7 GD
rat [6] = details: Fertility (Segment I), sprague dawley, Oral, Gavage/Intubation, dose end: 7 GD; remark: listed apart in the source
rat [7] = details: Sub-acute repeat dose toxicity, other, Oral, Gavage/Intubation, dose end: 29 day, group: systemic
rat [8] = details: Prenatal developmental toxicity study, Sprague Dawley OFA, Oral, Gavage/Intubation, dose end: 17 GD, group: maternal
rat [9] = details: Prenatal developmental toxicity study, sprague dawley, Oral, Gavage/Intubation, dose end: 17 GD, group: maternal
rat [10] = details: Fertility (Segment I), sprague dawley, Oral, Gavage/Intubation, dose end: 14 GD
rat [11] = details: Sub-acute repeat dose toxicity, sprague dawley, Oral, Gavage/Intubation, dose end: 1 month, group: systemic
[12] = systemic / clinical chemistry / albumin / albumin + systemic / clinical chemistry / albumin-globulin ratio / albumin-globulin ratio + …
[13] = systemic / in life observation / clinical signs / [other] + systemic / in life observation / clinical signs / defecation (diarrhea) + …
[14] = systemic / clinical chemistry / bilirubin / total bilirubin + systemic / hematology / platelet / platelet + systemic / in life observation…
[15] = systemic / clinical chemistry / bilirubin / total bilirubin + systemic / in life observation / clinical signs / [other] + systemic / in life…
[16] = systemic / in life observation / clinical signs / pulse/pressure + systemic / urinalysis / protein / protein
[17] = systemic / in life observation / clinical signs / pulse/pressure + systemic / urinalysis / protein / protein + systemic / in life …
[18] = group: developmental, systemic / in life observation / body weight / fetal weight
[19] = group: maternal, systemic / in life observation / body weight / body weight gain + systemic / in life observation / food consumption / food consumption + …
[20] = group: maternal, reproductive / reproductive performance / fertility / fertility + reproductive / reproductive performance / implantations / implantations + …
[21] = group: parental, systemic / in life observation / clinical signs / drooping eyelids (ptosis) + systemic / pathology gross / vagina / dilatation
[22] = group: maternal, reproductive / reproductive performance / estrous cycle / abnormal + reproductive / reproductive performance / estrous cycle / length
[23] = group: maternal, reproductive / reproductive performance / estrous cycle / abnormal + reproductive / reproductive performance / estrous cycle / length + …
[24] = group: parental, systemic / in life observation / body weight / body weight gain + systemic / in life observation / clinical signs / drooping eyelids (ptosis…
[25] = systemic / hematology / platelet / platelet + systemic / in life observation / body weight / body weight + systemic / in life observation / …
[26] = systemic / in life observation / clinical signs / drooping eyelids (ptosis) + systemic / in life observation / clinical signs / lacrimation …
[27] = systemic / in life observation / body weight / body weight + systemic / in life observation / clinical signs / drooping eyelids (ptosis)
[28] = systemic / in life observation / clinical signs / drooping eyelids (ptosis)
[29] = systemic / in life observation / body weight / body weight gain + systemic / in life observation / clinical signs / drooping eyelids (ptosis…
[30] = group: maternal, reproductive / reproductive performance / fertility / fertility
[31] = group: parental, systemic / in life observation / body weight / body weight gain + systemic / in life observation / clinical signs / [other] + systemic / in …
[32] = systemic / clinical chemistry / triglycerides / triglycerides + systemic / in life observation / body weight / body weight gain + systemic…
[33] = systemic / pathology gross / vagina / dilatation + systemic / pathology gross / skin / [other]

NC(=O)Cn1c(=O)cc(CCN2CCN(c3nccc4sccc34)CC2)c2ccc(F)cc21 [Trelanserin]
LOAEL (dog [1]; [12]): > 100 mg/kg/day | NOAEL (dog [1]; [12]): ≥ 100 mg/kg/day | LEL (dog [1]; [13]): 4 mg/kg/day | NEL (dog [1]; [13]): < 4 mg/kg/day | LOAEL (dog [2]; [14]): > 80 mg/kg/day | NOAEL (dog [2]; [14]): ≥ 80 mg/kg/day | LEL (dog [2]; [15]): 2 mg/kg/day | NEL (dog [2]; [15]): < 2 mg/kg/day | LEL (dog [3]; [16]): 1 mg/kg/day | NEL (dog [3]; [16]): < 1 mg/kg/day | LOAEL (dog [3]; [17]): > 16 mg/kg/day | NOAEL (dog [3]; [17]): ≥ 16 mg/kg/day | LEL (rat [4]): 4 mg/kg/day | LOAEL (rat [4]): 20 mg/kg/day | NEL (rat [4]): < 4 mg/kg/day | NOAEL (rat [4]): 4 mg/kg/day | LEL (mouse): 62.5 mg/kg/day | LOAEL (mouse): 250 mg/kg/day | NEL (mouse): < 62.5 mg/kg/day | NOAEL (mouse): 125 mg/kg/day | LEL (rabbit; [18]): 10 mg/kg/day | LOAEL (rabbit; [18]): > 30 mg/kg/day | NEL (rabbit; [18]): 5 mg/kg/day | NOAEL (rabbit; [18]): ≥ 30 mg/kg/day | LEL (rabbit; group: maternal, reproductive / reproductive performance / postimplantation loss / postimplantation loss): 5 mg/kg/day | NEL (rabbit; group: maternal, reproductive / reproductive performance / postimplantation loss / postimplantation loss + systemic / in life observation / body weight / …): 2 mg/kg/day | LOAEL (rabbit; [19]): > 30 mg/kg/day | NOAEL (rabbit; [19]): ≥ 30 mg/kg/day | LEL (rat [5]; [20]): 80 mg/kg/day | LOAEL (rat [5]; [20]): > 80 mg/kg/day | NEL (rat [5]; [20]): < 80 mg/kg/day | NOAEL (rat [5]; [20]): ≥ 80 mg/kg/day | LEL (rat [5]; [21]): 80 mg/kg/day | LOAEL (rat [5]; [21]): > 80 mg/kg/day | NEL (rat [5]; [21]): < 80 mg/kg/day | NOAEL (rat [5]; [21]): ≥ 80 mg/kg/day | LEL (rat [6]; [22]): 4 mg/kg/day | NEL (rat [6]; [22]): < 4 mg/kg/day | LOAEL (rat [6]; [23]): > 20 mg/kg/day | NOAEL (rat [6]; [23]): ≥ 20 mg/kg/day | LEL (rat [6]; [24]): 10 mg/kg/day | LOAEL (rat [6]; [24]): > 20 mg/kg/day | NEL (rat [6]; [24]): 4 mg/kg/day | NOAEL (rat [6]; [24]): ≥ 20 mg/kg/day | LOAEL (rat [7]; [25]): > 100 mg/kg/day | NOAEL (rat [7]; [25]): ≥ 100 mg/kg/day | LEL (rat [7]; [26]): 4 mg/kg/day | NEL (rat [7]; [26]): < 4 mg/kg/day | LOAEL (rat [8]; [27]): > 20 mg/kg/day | NOAEL (rat [8]; [27]): ≥ 20 mg/kg/day | LEL (rat [8]; [28]): 5 mg/kg/day | NEL (rat [8]; [28]): < 5 mg/kg/day | LOAEL (rat [9]; [29]): > 20 mg/kg/day | NEL (rat [9]; [29]): 1 mg/kg/day | NOAEL (rat [9]; [29]): ≥ 20 mg/kg/day | LEL (rat [9]; systemic / in life observation / clinical signs / drooping eyelids (ptosis) + systemic / in life observation / clinical signs / red or …): 5 mg/kg/day | LEL (rat [10]; [30]): 150 mg/kg/day | LOAEL (rat [10]; [30]): > 150 mg/kg/day | NEL (rat [10]; [30]): 20 mg/kg/day | NOAEL (rat [10]; [30]): ≥ 150 mg/kg/day | LOAEL (rat [10]; [31]): > 150 mg/kg/day | NEL (rat [10]; [31]): 4 mg/kg/day | NOAEL (rat [10]; [31]): ≥ 150 mg/kg/day | LEL (rat [10]; group: parental, systemic / in life observation / clinical signs / [other] + systemic / in life observation / clinical signs / drooping eyelids (ptosis) + …): 20 mg/kg/day | LOAEL (rat [11]; [32]): 20 mg/kg/day | NOAEL (rat [11]; [32]): 2 mg/kg/day | LEL (rat [11]; [33]): 2 mg/kg/day | NEL (rat [11]; [33]): < 2 mg/kg/day
